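Grown in 96-well plates, cells were treated for 48 hours with each compound at five concentrations. Insufficient inhibition: endpoint recorded as highest concentration tested. GI50 = concentration required for 50% inhibition of growth.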 Active and inactive are the calls of the source. No stated cut-off is given here; in the data, active = GI50 up to about 1.1 µM and inactive = higher.
How the values were obtained:
Assay in all cases: inhibition of tumour cell growth, NCI panel, 48 h
DMS-114 = test system: DMS-114
CAKI-1 = test system: CAKI-1
Malme-3M = test system: Malme-3M
SN12C = test system: SN12C
HT-29 = test system: HT-29
OVCAR-8 = test system: OVCAR-8
SNB-78 = test system: SNB-78
LXFL 529 = test system: LXFL 529
TK-10 = test system: TK-10
SNB-75 = test system: SNB-75
CCRF-CEM = test system: CCRF-CEM
U-251 = test system: U-251
NCI-H522 = test system: NCI-H522
UO-31 = test system: UO-31
NCI-H226 = test system: NCI-H226
M14 = test system: M14
SK-MEL-28 = test system: SK-MEL-28
XF498 = test system: XF498
COLO 205 = test system: COLO 205
SW-620 = test system: SW-620
NCI-H23 = test system: NCI-H23
SK-MEL-2 = test system: SK-MEL-2
M19-MEL = test system: M19-MEL
OVCAR-4 = test system: OVCAR-4
K562 = test system: K562
SK-OV-3 = test system: SK-OV-3
RPMI-8226 = test system: RPMI-8226
HOP-62 = test system: HOP-62
HOP-92 = test system: HOP-92
A498 = test system: A498
EKVX = test system: EKVX
SF-295 = test system: SF-295
SNB-19 = test system: SNB-19
HCT-116 = test system: HCT-116
ACHN = test system: ACHN
IGROV-1 = test system: IGROV-1
OVCAR-5 = test system: OVCAR-5
UACC-62 = test system: UACC-62
786-0 = test system: 786-0
KM12 = test system: KM12
UACC-257 = test system: UACC-257
NCI-H460 = test system: NCI-H460
HL-60 = test system: HL-60
OVCAR-3 = test system: OVCAR-3
DLD-1 = test system: DLD-1
A549 = test system: A549
MOLT-4 = test system: MOLT-4
SF-268 = test system: SF-268
SR = test system: SR
DMS-273 = test system: DMS-273
NCI/ADR-RES = test system: NCI/ADR-RES
HOP-18 = test system: HOP-18
KM-20L2 = test system: KM-20L2
MCF7 = test system: MCF7
SF-539 = test system: SF-539

Measured: GI50

Nc1ccccc1/C(O)=C1/CCOC1=O
inactive: DMS-114 > 100 µM | CAKI-1 > 100 µM | Malme-3M > 100 µM | SN12C > 100 µM | HT-29 > 100 µM | OVCAR-8 > 100 µM | SNB-78 > 100 µM | LXFL 529 > 100 µM | TK-10 > 100 µM | SNB-75 > 100 µM | CCRF-CEM > 100 µM | U-251 > 100 µM | NCI-H522 > 100 µM | UO-31 > 100 µM | NCI-H226 > 100 µM | M14 > 100 µM | SK-MEL-28 > 100 µM | XF498 > 100 µM | COLO 205 > 100 µM | SW-620 > 100 µM | NCI-H23 > 100 µM | SK-MEL-2 > 100 µM | M19-MEL > 100 µM | OVCAR-4 > 100 µM | K562 > 100 µM | SK-OV-3 > 100 µM | RPMI-8226 > 100 µM | HOP-62 > 100 µM | HOP-92 > 100 µM | A498 > 100 µM | EKVX > 100 µM | SF-295 > 100 µM | SNB-19 > 100 µM | HCT-116 > 100 µM | ACHN > 100 µM | IGROV-1 > 100 µM | OVCAR-5 > 100 µM | UACC-62 > 100 µM | 786-0 > 100 µM | KM12 > 100 µM | UACC-257 > 100 µM | NCI-H460 > 100 µM | HL-60 > 100 µM | OVCAR-3 > 100 µM | DLD-1 > 100 µM | A549 > 100 µM | MOLT-4 > 100 µM | SF-268 > 100 µM | SR > 100 µM

O=C(O)/C=C/c1c[nH]c(=O)[nH]c1=O
inactive: DMS-273 > 500 µM | DMS-114 > 500 µM | CAKI-1 > 500 µM | NCI/ADR-RES > 344 µM | SNB-75 > 500 µM | HOP-18 > 500 µM | CCRF-CEM > 316 µM | NCI-H226 489 µM | KM-20L2 > 500 µM | MCF7 > 500 µM | NCI-H23 > 500 µM | M19-MEL > 500 µM | K562 > 500 µM | SK-OV-3 > 500 µM | SF-295 > 232 µM | HL-60 > 446 µM | A549 > 500 µM | MOLT-4 > 281 µM

CCCSc1nc(COC(=O)NC)c(COC(=O)NC)n1C
inactive: DMS-273 48.9 µM | DMS-114 58.2 µM | CAKI-1 32.8 µM | Malme-3M 86.5 µM | SN12C 88.7 µM | SNB-78 63.2 µM | LXFL 529 36.3 µM | SNB-75 49 µM | CCRF-CEM 29.6 µM | U-251 98.2 µM | UO-31 57.1 µM | M14 > 100 µM | SK-MEL-28 > 100 µM | NCI-H23 54.2 µM | SK-MEL-2 53.2 µM | M19-MEL 88.1 µM | OVCAR-4 93.3 µM | K562 46.2 µM | RPMI-8226 25 µM | HOP-62 80.7 µM | HOP-92 56 µM | A498 46 µM | SF-539 64.1 µM | ACHN 23.9 µM | UACC-62 80.2 µM | 786-0 69.5 µM | NCI-H460 39.7 µM | HL-60 29.4 µM | DLD-1 > 100 µM | MOLT-4 21.2 µM | SR 29.4 µM

From ChEMBL document CHEMBL1201862, “PubChem BioAssay data set” (2004)
